From PubChem BioAssay (NCI)
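Tested at 5 concentrations; 48 h exposure; 96-well plates; endpoints linearly interpolated, else capped at highest concentration. Here, GI50 denotes the concentration required for 50% inhibition of growth. At the TGI there is no net growth.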

Experiments:
Test in all cases: NCI tumour cell line growth inhibition, 48 h
UO-31 renal = system: UO-31 renal
SK-MEL-28 melanoma = system: SK-MEL-28 melanoma
CAKI-1 renal = system: CAKI-1 renal
MDA-MB-231 breast = system: MDA-MB-231 breast
SNB-19 CNS = system: SNB-19 CNS
ACHN renal = system: ACHN renal
SK-MEL-2 melanoma = system: SK-MEL-2 melanoma
NCI-H226 lung = system: NCI-H226 lung
HCT-15 colon = system: HCT-15 colon
UACC-62 melanoma = system: UACC-62 melanoma

Structure (SMILES) | GI50 (UO-31 renal) [nM] | TGI (UO-31 renal) [µM] | GI50 (SK-MEL-28 melanoma) [nM] | TGI (SK-MEL-28 melanoma) [µM] | GI50 (CAKI-1 renal) [nM] | TGI (CAKI-1 renal) [µM] | GI50 (MDA-MB-231 breast) [nM] | TGI (MDA-MB-231 breast) [µM] | GI50 (SNB-19 CNS) [µM] | TGI (SNB-19 CNS) [µM] | GI50 (ACHN renal) [µM] | TGI (ACHN renal) [µM] | GI50 (SK-MEL-2 melanoma) [nM] | TGI (SK-MEL-2 melanoma) [µM] | GI50 (NCI-H226 lung) [µM] | TGI (NCI-H226 lung) [µM] | GI50 (HCT-15 colon) [nM] | TGI (HCT-15 colon) [µM] | GI50 (UACC-62 melanoma) [nM] | TGI (UACC-62 melanoma) [µM]
CC(C)(Cl)CCC1=C(Cl)C(=O)c2ccccc2C1=O | 1590 | 3.15 | 2400 | 5.26 | 1870 | 3.46 | 1730 | 3.65 | 4.22 | 17.1 | 1.65 | 3.03 | 2430 | 4.97 | 3.38 | 14.5 | 1580 | 3.05 | – | –
CC(=O)O[C@H](C[C@H](C(C)C)N(C)C(=O)[C@@H](NC(=O)[C@H]1CCCCN1C)C(C)C)c1nc(C(=O)N[C@@H](Cc2ccccc2)C[C@H](C)C(=O)O)c(C)s1 | 16.1 | > 25 | < 2.5 | > 25 | – | – | < 2.5 | > 25 | < 0.0025 | > 25 | – | – | < 2.5 | > 25 | – | – | 3.85 | > 25 | < 2.5 | > 25
CCN1C(=O)N(CC)C2C1NN=c1s/c(=C3\C(=O)N(CCC(C)C)c4ccccc43)c(=O)n12 (stereo not drawn) | – | – | 2580 | > 100 | 686 | 4.17 | 1660 | 3.42 | 2.39 | 11.5 | 1.86 | 6.7 | 2320 | 11.4 | 2.52 | 7.69 | 1310 | 3.75 | 607 | 8.04
O=c1ncc(-c2ccc(C(F)(F)F)cc2)c(NC2CCCCCC2)[nH]1 | 14200 | 38.9 | 17000 | 33.9 | 18700 | 48.4 | 16600 | 38.1 | 24.2 | 80.8 | 30.9 | > 100 | – | – | 19.4 | 46 | 22100 | 64.6 | 13800 | 29.3
CC(C)C1C(=O)N2CCCC2C2(O)OC(NC(=O)C3C=C4c5cccc6[nH]cc(c56)CC4N(C)C3)(C(C)C)C(=O)N12 (stereo not drawn) | – | 37 | – | > 100 | – | 37.9 | – | 34.3 | – | > 100 | – | 43.4 | – | 42.4 | – | – | – | 54.9 | – | 55.7
C#C[C@@]1(O)[C@@H](CO)O[C@@H](n2cc(Cl)c3c(N)ncnc32)[C@@H]1O | 173 | 1.78 | 575 | 71.5 | – | – | 169 | 0.951 | 0.021 | 0.294 | – | – | 146 | 0.481 | 0.508 | – | 143 | > 100 | – | –
O=c1[nH]cnc2c(C3OC(CO)C(O)C3O)[nH]nc12 (stereo not drawn) | – | > 100 | – | > 100 | – | > 100 | – | > 100 | – | > 100 | – | > 100 | – | – | – | > 100 | – | > 100 | – | > 100
CS(=O)(=O)c1ccc(N/N=C/c2c(-c3ccc(S(C)(=O)=O)cc3)[nH]c3ccc(F)cc23)cc1 | 2160 | > 50 | 1590 | > 50 | > 50000 | > 50 | 1690 | > 50 | 2.36 | > 50 | 3.32 | > 50 | 1740 | 4.73 | – | – | 18100 | > 50 | 1910 | > 50
CC[C@H](C)c1occ2c(O)c(C(=O)O)c(=O)cc-2c1C | – | – | – | – | – | > 100 | – | 50.6 | – | > 100 | – | 65.4 | – | 34 | – | > 100 | – | 32.1 | – | 37.4
O=S(=O)(NCCNc1cc(-c2cn(-c3ccccc3)nc2-c2cccc(O)c2)ccn1)c1ccc(C(F)(F)F)cc1 | 1810 | 4.28 | 2710 | 9.83 | 1940 | 5.35 | 2120 | 4.72 | 3.79 | 17.4 | – | – | 2360 | 7.22 | 5.36 | 30.9 | 2340 | 11 | 1780 | 3.98
CC(=O)[O-].CC(=O)[O-].[Mn+2].c1ccc(/C(=N\Nc2ccccn2)c2ccccn2)cc1 | – | 3.88 | – | 19.7 | 39.3 | 8.47 | 39.9 | 16.3 | – | 16.7 | – | 4.44 | – | – | – | 3 | 43.2 | 16.1 | – | 1.13
COc1ccc(OC)c(/C=C/c2nnc(Nc3ccc(Cl)cc3)o2)c1 | 3130 | 12.6 | 26800 | > 100 | 6020 | > 100 | 5230 | 53.1 | 13.8 | > 100 | 3.29 | 19.9 | 9660 | > 100 | – | – | 34100 | > 100 | 16200 | > 100
